The values that follow come from PubChem BioAssay AID1963833 (Molecular Pharmacology Branch, DTP, NCI, 2024).

The assay concerns 883617-216-R-J1-PDC complex spheroid viability. The experiment in a line: Anticancer human tumor 883617-216-R-J1-PDC patient-derived bladder carcinoma cell line growth inhibition [POLQ]. Conditions: for viability, T/C: stronger effect = lower value. On the procedure:
Multicellular complex tumor spheroid response to Polymerase (POL) inhibitors (novobiocin, ART-558, RP6685) in combination with a variety of drugs and investigational agents in selected tumor cell lines
The POL inhibitors (novobiocin, ART-558, and RP6685) were evaluated both individually and in combination with standard of care and investigational anticancer small molecules within a complex spheroid model of solid tumors. . Complex spheroids include a stromal component modeled by human endothelial cells (HUVEC) and fibroblasts modeled by human mesenchymal stem cells (MSCs). The concentration ranges selected for each drug and investigational agent were based upon clinically achievable concentrations if the clinical Cmax of the agent was known.
Compounds. The drugs and investigational agents: novobiocin (NSC847541), ART-558 (NSC835418), RP-6685 (NSC848927), peposertib (NSC802822), ceralasertib (NSC780249), elimusertib (NSC800525), camonsertib (NSC841442), AZD-1390 (NSC803789), olaparib (NSC753686), talazoparib (NSC767125), rucaparib (NSC756644), sotorasib (NSC818433), MRTX-1133 (NSC836407), SN-38 (NSC673596), topotecan (NSC609699), epotoside (NSC141540), doxorubicin (NSC123127), gemcitabine (NSC613327), 5-fluorouracil (NSC19893), paclitaxel (NSC125973), vemurafenib (NSC761431), MSA-2 (NSC828583), SN-011 (NSC837082), adavosertib (NSC754352), prexasertib (NSC758257), carboplatin (NSC241240) and oxaliplatin (NSC266046), were obtained from the National Cancer Institute (NCI) Developmental Therapeutics Program Chemical Repository (21). The FDA-approved anticancer drug set is available from the Developmental Therapeutics Program at https://dtp.cancer.gov/organization/dscb/obtaining/. […] The stock solutions were prepared in dimethyl sulfoxide (DMSO, Sigma-Aldrich, St. Louis, MO, cat. D2650), except for the platinum compounds which were prepared in saline (Quality Biological, Gaithersburg, MD, cat. 114-055-101), at 800-fold the tested concentration and stored at -70 degrees C prior to their use. All drugs and investigational agents were tested over a range starting from a high concentration at or near the clinical Cmax and decreasing in half-log increments. If the clinical Cmax for an agent had not been determined, the highest concentration tested was 10 microM, except for SN-38, which was tested at a high concentration of 1 microM.
Cell Culture. All cells were maintained in an incubator at 37 degrees C and 5% CO2 with 95% humidity. The PDC lines were cultured according to standard operating procedures established by the NCI PDMR (https://pdmr.cancer.gov). Table 3 of the manuscript, lists the cell lines along with the number of the three cell types plated to form the mct-spheroids and media for tumor cell growth. After thawing, all PDC lines, except 997537-175-T-J1-PDC and 415267-285-R-J2-PDC, were cultured in Matrigel-coated flasks prepared with a working solution of 1X Ham's F-12 nutrient mix, without supplementation (Thermo Fisher Scientific, cat. 11765054), 100 U/mL penicillin-streptomycin (Thermo Fisher Scientific, cat. 15140122), and 2.5% Matrigel (Corning Inc., Corning, NY, cat. 354248) for the first three passages. The two PDC lines 997537-175-T-J1-PDC and 415267-285-R-J2-PDC were cultured on uncoated flasks. The 857933-349-R-J2-PDC line was cultured in 6C/Colon 1B media containing advanced DMEM/F-12 (Thermo Fisher Scientific, cat. 12634028), 10 mM HEPES (Thermo Fisher Scientific, cat. 15630080), 1X GlutaMAX supplement (Thermo Fisher Scientific, cat. 35050061), 0.1 mg/mL primocin (InvivoGen, San Diego, CA, cat. ant-pm-2), 10% defined fetal bovine serum, heat inactivated (HyClone Laboratories Inc., Logan, UT, cat. SH30070.03HI), 50% L-WRN conditioned media (ATCC, cat. CRL-3276), 1.25 mM N-Acetyl-L-cysteine (Sigma-Aldrich, cat. A9165), 10 mM nicotinamide (Sigma-Aldrich, cat. N0636), 1X B-27 supplement (Thermo Fisher Scientific, cat. 17504044), 1X N-2 supplement (Thermo Fisher Scientific, cat. […]

The mark [1] stands for this setting: curve of first compound, second compound 0.0316 µM.
Setting [2] is: curve of first compound, second compound 0.1 µM.
Where [3] appears, read: curve of first compound, second compound 0.316 µM.
Where [4] appears, read: curve of first compound, second compound 1 µM.
Where [5] appears, read: curve of first compound, second compound 3.16 µM.
Setting [6] is: curve of first compound, second compound 10 µM.
The mark [7] stands for this setting: second compound 0.0316 µM, first compound 0.0316 µM.
[8] abbreviates: second compound 0.0316 µM, first compound 0.1 µM.
Where [9] appears, read: second compound 0.0316 µM, first compound 0.316 µM.
Setting [10] is: second compound 0.0316 µM, first compound 1 µM.
Where [11] appears, read: second compound 0.1 µM, first compound 0.0316 µM.
[12] abbreviates: second compound 0.1 µM, first compound 0.1 µM.
The mark [13] stands for this setting: second compound 0.1 µM, first compound 0.316 µM.
[14] abbreviates: second compound 0.1 µM, first compound 1 µM.
The mark [15] stands for this setting: second compound 0.316 µM, first compound 0.0316 µM.
Where [16] appears, read: second compound 0.316 µM, first compound 0.1 µM.
The mark [17] stands for this setting: second compound 0.316 µM, first compound 0.316 µM.
Setting [18] is: second compound 0.316 µM, first compound 1 µM.
The mark [19] stands for this setting: second compound 1 µM, first compound 0.0316 µM.
The mark [20] stands for this setting: second compound 1 µM, first compound 0.1 µM.
Where [21] appears, read: second compound 1 µM, first compound 0.316 µM.
Where [22] appears, read: second compound 1 µM, first compound 1 µM.
The mark [23] stands for this setting: second compound 3.16 µM, first compound 0.0316 µM.
Setting [24] is: second compound 3.16 µM, first compound 0.1 µM.
[25] abbreviates: second compound 3.16 µM, first compound 0.316 µM.
Where [26] appears, read: second compound 3.16 µM, first compound 1 µM.
[27] abbreviates: second compound 10 µM, first compound 0.0316 µM.
[28] abbreviates: second compound 10 µM, first compound 0.1 µM.
Where [29] appears, read: second compound 10 µM, first compound 0.316 µM.
Setting [30] is: second compound 10 µM, first compound 1 µM.

Several values for one entry are separate records, joined by “and”; a condition that tells them apart may be missing. Identical values can stand only once.
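Further: spheroids exposed to compounds for seven days before readout.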

As usually defined, the IC50 is the concentration that inhibits the measured activity by half. As a reminder, the viability, T/C is the result in the treated group divided by that in the control group, in per cent. Take `CCc1c2c(nc3ccc(O)cc13)-c1cc3c(c(=O)n1C2)COC(=O)[C@]3(O)CC` + Nc1ccc(C#CCN(C(=O)Cc2ncc(C(F)(F)F)cc2C(F)(F)F)c2ccc(F)cc2)nn1: the half-inhibitory concentration (IC50) reads like this: under setting [1], 107 nM; under setting [2], 169 nM; under setting [3], 177 nM; under setting [4], 90.8 nM; under setting [5], 168 nM; under setting [6], 278 nM. Besides, the viability, T/C was 77.5% (second compound 0.0316 µM, first compound 0.00316 µM); 71% (second compound 0.0316 µM, first compound 0.01 µM); 59.1% under setting [7]; 51.3% under setting [8]; 40% under setting [9]; 27.1% under setting [10]. The viability, T/C (second compound 0.1 µM, first compound 0.00316 µM) is 92.6%; the viability, T/C (second compound 0.1 µM, first compound 0.01 µM) was 68.3%; the viability, T/C under setting [11] is 70.8%; the viability, T/C under setting [12] is 62.3%; the viability, T/C under setting [13] is 39.5%; the viability, T/C under setting [14] was 27.9%. Besides, the viability, T/C was 77.5% (second compound 0.316 µM, first compound 0.00316 µM); 76% (second compound 0.316 µM, first compound 0.01 µM); 72.6% under setting [15]; 51% under setting [16]; 46.6% under setting [17]; 26.8% under setting [18]. The viability, T/C is 86.4% (second compound 1 µM, first compound 0.00316 µM); 82.6% (second compound 1 µM, first compound 0.01 µM); 59.3% under setting [19]; 50.1% under setting [20]; 40.1% under setting [21]; 31.4% under setting [22]. For the same compound, the viability, T/C is 94.8% (second compound 3.16 µM, first compound 0.00316 µM); 84.2% (second compound 3.16 µM, first compound 0.01 µM); 71.1% under setting [23]; 52.3% under setting [24]; 45.9% under setting [25]; 27.4% under setting [26]. The viability, T/C is, setting by setting: (second compound 10 µM, first compound 0.00316 µM) 93.6%; (second compound 10 µM, first compound 0.01 µM) 89.1%; under setting [27], 78.9%; under setting [28], 59.8%; under setting [29], 51.4%; under setting [30], 34.1%.
Consider `CCc1cc2c(N3CCc4c(cc(Cn5ccnc5)cc4-c4cn(C)nc4C(F)(F)F)C3=O)ccnc2c(OC)n1`, for which the viability, T/C is 105% and 80.5% and 91.8% (compound 0.0316 µM); 94% and 89.7% and 94.5% (compound 0.1 µM); 102% and 76.2% and 108% (compound 0.316 µM); 107% and 92.5% and 85.3% (compound 1 µM); 80.3% and 74.5% and 92% (compound 3.16 µM); 51% and 47.2% and 50.3% (compound 10 µM). Further, the 50% inhibitory concentration (IC50) (curve of compound) is > 10000 nM and 8890 nM.
`CCc1cc2c(N3CCc4c(cc(Cn5ccnc5)cc4-c4cn(C)nc4C(F)(F)F)C3=O)cc(C)nc2c(OC)n1`: the viability, T/C by setting is: (compound 0.0316 µM) 106% and 92.1% and 103%; (compound 0.1 µM) 91.4% and 85.8% and 99.9%; (compound 0.316 µM) 116% and 83.7% and 101%; (compound 1 µM) 91% and 107% and 80.5%; (compound 3.16 µM) 75% and 69.3% and 71.5%; (compound 10 µM) 54.1% and 46.2% and 47.7%. The IC50 (curve of compound) was > 10000 nM and 8290 nM and 9040 nM.
With `COc1cccc2c1C(=O)c1c(O)c3c(c(O)c1C2=O)CC(O)(C(=O)CO)CC3OC1CC(N)C(O)C(C)O1` (stereo not given) + Cc1cccc(N(C)C(=O)C2C(O)CCN2c2nc(C)cc(C(F)(F)F)c2C#N)c1, the IC50 under setting [1] was 311 nM; the half-maximal inhibitory concentration (IC50) under setting [2] worked out at 228 nM; the IC50 under setting [3] was found to be 222 nM; the half-inhibitory concentration (IC50) under setting [4] stood at 359 nM; the IC50 under setting [5] worked out at 206 nM; the IC50 under setting [6] came to 330 nM. Also, the viability, T/C is, setting by setting: under setting [7], 78%; under setting [8], 60.8%; under setting [9], 52.2%; under setting [10], 9.43%; (second compound 0.0316 µM, first compound 3.16 µM) 0.22%; (second compound 0.0316 µM, first compound 10 µM) 0.21%. In addition, the viability, T/C reads like this: under setting [11], 66.1%; under setting [12], 67.9%; under setting [13], 43.2%; under setting [14], 8.29%; (second compound 0.1 µM, first compound 3.16 µM) 0.32%; (second compound 0.1 µM, first compound 10 µM) 0.2%. Further, the viability, T/C reads like this: under setting [15], 74.3%; under setting [16], 59.8%; under setting [17], 45.4%; under setting [18], 6.2%; (second compound 0.316 µM, first compound 3.16 µM) 0.22%; (second compound 0.316 µM, first compound 10 µM) 0.2%. Further, the viability, T/C reads like this: under setting [19], 65.1%; under setting [20], 57.5%; under setting [21], 55.6%; under setting [22], 5.25%; (second compound 1 µM, first compound 3.16 µM) 0.22%; (second compound 1 µM, first compound 10 µM) 0.2%. Further, the viability, T/C under setting [23] was 66.8%; the viability, T/C under setting [24] is 57.3%; the viability, T/C under setting [25] was 43.7%; the viability, T/C under setting [26] is 3.99%; the viability, T/C (second compound 3.16 µM, first compound 3.16 µM) is 0.31%; the viability, T/C (second compound 3.16 µM, first compound 10 µM) is 0.29%. For the same compound, the viability, T/C runs as follows: under setting [27], 66%; under setting [28], 58.1%; under setting [29], 51.9%; under setting [30], 1.41%; (second compound 10 µM, first compound 3.16 µM) 0.35%; (second compound 10 µM, first compound 10 µM) 0.34%.
Consider `COC1C(OC(N)=O)C(O)C(Oc2ccc3c(O)c(NC(=O)c4ccc(O)c(CC=C(C)C)c4)c(=O)oc3c2C)OC1(C)C` (stereo not given), for which the viability, T/C is 98.8% [middle of 13 runs] (compound 0.0316 µM), 99.7% [middle of 13 runs] (compound 0.1 µM), 103% [middle of 13 runs] (compound 1 µM) and 100% [middle of 12 runs] (compound 3.16 µM). Also, the IC50 (compound alone, run of 01/08/2024) was more than 10000 nM.
As to `CCc1c2c(nc3ccc(O)cc13)-c1cc3c(c(=O)n1C2)COC(=O)[C@]3(O)CC`, the viability, T/C was 60.2% and 77.9% and 72.8% (compound 0.00316 µM); 56.4% and 60.8% and 57.2% (compound 0.01 µM); 59.9% and 65.7% and 60.6% (compound 0.0316 µM); 48.4% and 64.6% and 47.4% (compound 0.1 µM); 33.3% and 41.8% and 31.2% (compound 0.316 µM); 18.5% and 31.8% and 23.8% (compound 1 µM). Besides, the IC50 (curve of compound) is 95 nM and 220 nM and 63.1 nM.
